What was measured:
FoADH = biological target: T1, FoADH (Formosa agariphila, UniProt T2KM87); assay: X-ray crystal structure; format: binding; conditions: co-crystallised with 20 mM NAD+, pH 7.5; Zn2+ bound
T1 construct: gene BN863_21030; full-length from genomic DNA in pET28a, N-terminal Strep-tag, E. coli BL21(DE3); homotetramer; 2 Zn per monomer
T1 sequence (T2KM87 1-370): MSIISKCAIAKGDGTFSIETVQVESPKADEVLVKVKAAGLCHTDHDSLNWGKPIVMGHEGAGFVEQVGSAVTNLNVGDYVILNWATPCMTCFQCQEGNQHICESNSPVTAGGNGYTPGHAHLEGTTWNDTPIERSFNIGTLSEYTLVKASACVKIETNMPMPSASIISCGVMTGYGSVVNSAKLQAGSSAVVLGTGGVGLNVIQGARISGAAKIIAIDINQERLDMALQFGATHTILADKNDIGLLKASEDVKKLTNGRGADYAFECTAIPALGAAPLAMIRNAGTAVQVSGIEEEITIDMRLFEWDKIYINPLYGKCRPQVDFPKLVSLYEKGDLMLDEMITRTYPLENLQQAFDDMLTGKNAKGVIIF

ZoADH = biological target: T2, ZoADH (Zobellia galactanivorans, UniProt G0L712); assay: X-ray crystal structure; format: binding; conditions: co-crystallised with 20 mM NAD+, pH 7.5; Zn2+ bound
T2 construct: gene adhI; codon-optimized synthetic gene in pET28a, N-terminal Strep-tag, E. coli BL21(DE3); homotetramer; 2 Zn per monomer
T2 sequence (G0L712 entry or part of it): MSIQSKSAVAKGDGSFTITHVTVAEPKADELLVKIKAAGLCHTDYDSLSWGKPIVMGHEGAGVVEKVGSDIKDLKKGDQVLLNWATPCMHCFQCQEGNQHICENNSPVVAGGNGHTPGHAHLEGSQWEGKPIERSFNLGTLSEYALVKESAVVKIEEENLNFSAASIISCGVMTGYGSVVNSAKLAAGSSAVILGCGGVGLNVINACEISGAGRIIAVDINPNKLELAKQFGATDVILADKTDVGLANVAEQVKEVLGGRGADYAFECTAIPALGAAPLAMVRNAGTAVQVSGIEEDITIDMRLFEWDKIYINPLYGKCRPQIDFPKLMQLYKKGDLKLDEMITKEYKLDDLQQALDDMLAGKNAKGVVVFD

[1] = biological target: zinc-dependent alcohol dehydrogenase from Zobellia galactanivorans DsijT (Zobellia galactanivorans DsijT); assay: crystal structure; enzyme (25 mg/mL) incubated with 20 mM NAD+ overnight; crystals from 0.1 M Tris-HCl pH 7.5, 0.2 M KCl, 20-22% (w/v) PEG 3350 at 22 °C; tetrameric interfaces analysed by PDBePISA; tetramer as a dimer of dimers
[2] = biological target: the molecule itself; assay: as above

Molecule: NC(=O)c1ccc[n+]([C@@H]2O[C@H](COP(=O)(O)OP(=O)(O)OC[C@H]3O[C@@H](n4cnc5c(N)ncnc54)[C@H](O)[C@@H]3O)[C@@H](O)[C@H]2O)c1 [NAD^+]
- X-ray crystal structure (FoADH): deposited in the Protein Data Bank under PDB codes 8H2A (FoADH-NAD)
- X-ray crystal structure (ZoADH): PDB codes 8H2A (FoADH-NAD) and 8H2B (ZoADH-NAD)

Molecule: zinc-dependent alcohol dehydrogenase from Zobellia galactanivorans DsijT (enzyme)
- stoichiometry N [1]: 4

B1: zinc-dependent alcohol dehydrogenase from Formosa agariphila KMM 3901T (enzyme, UniProt T2KM87 1-370, looked up)
chain: T1 sequence (T2KM87 1-370)
notes: FoADH, zinc-dependent alcohol dehydrogenase of Formosa agariphila KMM 3901T (DSM-15362), amplified from genomic DNA into pET28a; the printed insert primers run from the ATG to the stop codon (TTA in the reverse primer); Crystallised with NAD+ and two zinc ions; also called FoADH; ADH; source: E. coli BL21 (DE3), purified (Strep-Tactin XT Sepharose, size exclusion chromatography)
- stoichiometry N [2]: 4

— article PMC10033563, “Unique alcohol dehydrogenases involved in algal sugar utilization by marine bacteria” (Applied Microbiology and Biotechnology, 2023)
